Laboratory results published in patent US7192607B2, “Formulations for the prevention or the treatment of diseases affecting mucosae or skin, or for pregnancy prevention, and an applicator for the delivery of topical formulations into mucosal cavities” (Infectio Recherche Inc, priority 2002, dated 2007).

What was measured:
HSV-1 (strain F) [1] = assay: Infectivity of HSV-1 (strain F) to Vero cells after treatment with SLS or DS (plaque forming units); type: cell-based, Herpes simplex virus type-1; details: independent of whether the virus was pretreated, FIG. 1, read-out: concentration giving a loss of 50% of the viral infectivity
Procedure: The effect of pretreating different strains of herpes viruses with SLS or DS on their viral infectivities to susceptible cells has been evaluated. In brief, cells were seeded in 24 well-plates (Costar, Montreal, QC, Canada). Prior to infection, the virus was either suspended in culture medium or phosphate buffered saline (PBS), or incubated with different concentrations of SLS in PBS for 1 h at 37° C. At confluency, cells were incubated with viral suspensions by centrifuging the plates (750× g for 45 min at 20° C.) to allow virus adsorption. Virus was removed and cell sheets were then overlaid with 0.5 ml of 0.6% agarose Seaplaque (Marine Colloids, Rockland, Md.) prepared in appropriate culture medium. The plates were incubated for 2 days at 37° C. Cells were then fixed with 10% formaldehyde in PBS for 20 min, washed with deionized water and stained with 0.05% methylene blue. Viral infectivity was evaluated via the determination of Plaque Forming Units (PFU).
HSV-1 (strain F) infectivity was reduced to 21% when viral particles were pretreated with 25 μM SLS. The infectivities of all HSV-2 strains were between 50 to 70% following preincubation with 25 μM SLS. A complete loss of the infectivity of all strains tested were obtained following pretreatment of the viruses with 50 μM SLS.
When SLS was immediately added to Vero cells following their infection, the loss of viral infectivity was less dramatic compared to that obtained for virus pretreated for 1 h at 37° C. with the same SLS concentrations. […] Similarly, pretreatment of the HSV-2 (strain 333) with SLS also influenced the infectivity of this strain (data not shown). On the other hand, DS reduces the infectivity of the virus independent of whether the virus was pretreated with DS.

HSV-1 (strain F) [2] = assay: Murine cutaneous infection model, HSV-1 pretreated with SLS or DS; type: in vivo, hairless mice (SKH1)
Procedure: The effect of pretreating HSV-1 (strain F) with SLS on viral infectivity has also been evaluated in a murine cutaneous infection model. Female hairless mice (SKH1; Charles River Breeding Laboratories Inc., St-Constant, QC, Canada), 5–6 weeks old were used throughout this study. […] Mice were anesthetized by intraperitoneal injection of a mixture containing 70 mg/kg ketamine hydrochloride (Rogarsetic* injection USP; Rogar/STB Inc. Montreal, QC, Canada) and 11.5 mg/kg xylazine (Rompun®; Miles Canada Inc., Etobicoke, ON, Canada). The virus was inoculated on the lateral side of the body in the left lumbar skin area. The skin was scratched six times in a crossed-hatched pattern with a 27-gauge needle held vertically. Viral suspension (50 μl) was deposited onto the scarified area and rubbed for 10 to 15 see with a cotton tipped applicator saturated with EMEM+2% FBS or SLS or DS solutions. The scarified area was protected with a corn cushion which was maintained on the mice body with surgical tape. The porous inner wall of the aperture of the corn cushion was impermeabilized with tissue adhesive prior to use to prevent absorption of the drug. The aperture of the corn cushion was also closed with surgical tape. Mice were then returned to their cages and observed twice daily.
In infected untreated mice, no pathological signs of cutaneous infection were visible during the first four days following infection and only the scarified area remained appearent. On day 5, herpetic skin lesions began to appear in some mice in the form of small vesicles distant from the inoculation site. On day 6, almost all untreated mice developed herpetic skin lesions in the form of a 4–5 mm wide band extending from the spine to the ventral midline of the infected dermatome similar to zoster-like infections. Maximal mean lesion score was observed on day 8. Mean lesion score decreased thereafter from day 11 to day 15 because of spontaneous regression of cutaneous lesions in some mice. […] Of prime importance, all mice infected with the virus pretreated with 100 μM SLS survived the infection (data not shown).

HSV-1 (strain F) [3] = assay: Efficacy of SLS or DS added in overlay after infection against HSV-1 (strain F) in Vero cells (PFU); type: cell-based, Herpes simplex virus type-1; details: cells infected 2 h, compound in overlay for 2 days, FIG. 2
Procedure: In brief, cells were infected with the virus for 2 h at 37° C. Afterwards, supernatant was removed and cells were overlaid with 0.5 ml of EMEM +2% FBS containing 0.6% agarose Seaplaque and SLS or DS at the desired concentration. Plates were then incubated for 2 days at 37° C. in a 5% CO2 atmosphere. Cells were fixed with 10% formaldehyde in PBS for 20 min, washed with deionized water and stained with 0.05% methylene blue. Viral infectivity was evaluated following the determination of PFU.

Vero cells = assay: Viability of Vero cells exposed to SLS or DS (MTS test); details: Vero cells exposed 1 h at 37° C. to concentrations as in FIG. 1 and Table 1; data not shown
[4] = In vivo skin penetration of antivirals (distribution in skin tissues); design: species or system mice
[5] = Concentration of acyclovir in plasma after topical application; type: in vivo; details: drug incorporated within the poloxamer matrix; infected vs uninfected mice; 24 h
HSV-1 (strain F) [6] = assay: Treatment of HSV-1 cutaneous lesions in mice with topical formulations; type: in vivo, hairless mice (SKH1); details: treatment started 24 h after infection, 3 times daily for 4 days
Procedure: For the purpose of testing the efficacy of our gel formulations in a murine model of cutaneous HSV-1 infection, the solutions were prepared within a phosphate buffer (0.2 M, pH 6) to be compatible with the pH of the skin.
The efficacy of our different topical formulations has been evaluated in a murine model of cutaneous HSV-1 infection. In brief, female hairless mice (SKH1; Charles River Breeding Laboratories Inc., St-Constant, QC, Canada), 5–7 weeks old were anesthetized by intraperitoneal injection of a mixture containing 70 mg/kg ketamine hydrochloride and 11.5 mg/kg xylazine. The virus was inoculated on the lateral side of the body in the left lumbar skin area. The skin was scratched six times with a 27 gauge needle held vertically in a crossed-hatched pattern. Fifty μl of viral suspension (HSV-1 strain F, 1.5×10^6 plaque forming units (PFU)/ml) was rubbed for 10 to 15 sec on the scarified skin area with a cotton tipped applicator saturated with culture medium [minimum essential medium (MEM) supplemented with 100 U/ml of penicillin-streptomycin, 2 mM L-glutamine and 2% fetal bovine serum (MEM-E +2% FBS)]. The scarified area was protected with a corn cushion which was maintained on the mice body with surgical tape. […]
Different treatment regimens were evaluated in this study. […] The efficacy of the different formulations was evaluated using lesion scores and survival.

HSV-1 (strain F) [7] = assay: In vitro susceptibility of HSV-1 to combination of foscarnet and SLS in Vero cells (PFU); type: cell-based, Herpes simplex virus type-1; details: combinations of different concentrations in overlay, 2 days, FIG. 22
Procedure: The effect of SLS on the efficacy of foscamet against HSV-1 (strain F) was investigated in Vero cells. In brief, cells were seeded in 24 well-plates (Costar, Montreal, QC, Canada) and were incubated with HSV-1 strain F (approximately 100 PFU/ml) for 2 h at 37° C. to allow virus adsorption. Afterwards, virus was removed and cells overlaid with 0.5 ml of 0.6% agarose Seaplaque (Marine Colloids, Rockland, Mass.) containing different concentrations of foscarnet, SLS or combination of both compounds. The plates were incubated for 2 days at 37° C. Cells were then fixed with 10% formaldehyde in PBS for 20 min, washed with deionized water and stained with 0.05% methylene blue. Virus susceptibility was evaluated via the determination of PFU.

Q: What does the source list for dextran sulfate [DS]?
A: IC50 (HSV-1 (strain F) [1]): ~1 nM; mean lesion score (HSV-1 (strain F) [2]; virus pretreated with 0.25 nM DS): partial reduction; protection against the development of herpetic lesions (HSV-1 (strain F) [2]; virus pretreated with either 1 or 10 nM DS): better protection; concentration with complete efficacy against viral replication (HSV-1 (strain F) [3]): 20 µM; cytotoxicity (viability, MTS test) (Vero cells): No signs of cytotoxicity

Q: For `Nc1nc2c(ncn2COCCO)c(=O)[nH]1` [acyclovir], which “effect of infection on amount in the epidermis” value ([4]; infected vs uninfected mice, 24 h) is on record?
A: did not significantly increase

Q: What about the “concentration in the epidermis and dermis compared with that of foscarnet” value ([4]; uninfected and infected mice, irrespective of the carrier, 24 h) of the same compound?
A: higher

Q: And the “increase of concentration in plasma by infection” value [5]?
A: 4 fold

Q: What does the source list for `O=C(O)P(=O)(O)O` [foscarnet]?
A: mice that survived the infection (HSV-1 (strain F) [6]; 0.5% foscarnet in solution): Half; mean lesion score (HSV-1 (strain F) [6]; solution of 0.5% foscarnet): large reduction; concentration in the epidermis and dermis ([4]; infected mice, drug incorporated within the poloxamer vs phosphate buffer, 24 h): significantly higher; amounts found in the underlying epidermis and dermis ([4]; uninfected mice, irrespective of the carrier, 24 h after topical application): No or negligible amounts; efficacy of foscarnet against HSV-1 (strain F) in the presence of SLS (HSV-1 (strain F) [7]): enhanced
